Source: PubChem BioAssay (NCI)
Values joined by “and” are separate entries in the source; they are usually repeats but may differ in a detail not shown here. Equal entries are not always repeated.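 Growth conditions: 96-well plates. Treatment: test compound, 48 hours, 5 concentrations. Analysis: linear interpolation between bracketing concentrations; unreached endpoints set to highest concentration. GI50: concentration for 50% inhibition of growth. TGI denotes the concentration required for complete inhibition of growth.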

Tests used:
Assay in all cases: inhibition of tumour cell growth, NCI panel, 48 h
786-0 renal = test system: 786-0 renal
EKVX NSCLC = test system: EKVX NSCLC
OVCAR-3 ovarian = test system: OVCAR-3 ovarian
PC-3 prostate = test system: PC-3 prostate
SK-MEL-28 melanoma = test system: SK-MEL-28 melanoma
SR leukemia = test system: SR leukemia
T-47D breast = test system: T-47D breast
TK-10 renal = test system: TK-10 renal
OVCAR-4 ovarian = test system: OVCAR-4 ovarian
MDA-MB-231 breast = test system: MDA-MB-231 breast

Compound | TGI (786-0 renal) [µM] | TGI (EKVX NSCLC) [µM] | TGI (OVCAR-3 ovarian) [µM] | TGI (PC-3 prostate) [µM] | TGI (SK-MEL-28 melanoma) [µM] | TGI (SR leukemia) [µM] | TGI (T-47D breast) [µM] | TGI (TK-10 renal) [µM] | TGI (OVCAR-4 ovarian) [µM] | TGI (MDA-MB-231 breast) [µM] | GI50 (EKVX NSCLC) | GI50 (MDA-MB-231 breast) [µM] | GI50 (OVCAR-3 ovarian) | GI50 (OVCAR-4 ovarian) | GI50 (PC-3 prostate) | GI50 (SK-MEL-28 melanoma) | GI50 (SR leukemia) [µM] | GI50 (T-47D breast) [µM] | GI50 (TK-10 renal) [µM]
Cc1c2ccccc2c(C)n2c1nc1ccccc12 | 25.9 | 54.9 | 21.8 | 25.2 | 22.5 | > 100 | 89.6 | 44.4 | – | – | – | – | – | – | – | – | – | – | –
Cn1ccnc1CCc1ccc(Cl)c(Cl)c1 | > 100 | – | > 100 | – | > 100 | > 100 | – | > 100 | > 100 | – | – | – | – | – | – | – | – | – | –
O=C(O)CNC(=O)c1ccc2cc(C(=O)N3CC(CCl)c4ccc([N+](=O)[O-])cc43)[nH]c2c1 (configuration not stated) | > 100 | > 100 | > 100 | > 100 | – | > 100 | > 100 | > 100 | > 100 | > 100 | – | – | – | – | – | – | – | – | –
CN(C)c1ccc(/C=C/C(=O)O)cc1 | – | > 100 | > 100 | – | – | – | – | – | – | – | – | – | – | – | – | – | – | – | –
COc1cccc(C2SC(C)C(=O)N2CCc2cccs2)c1 (configuration not stated) | – | 10.7 | 7.6 | 8.65 | 14 | 15.5 | 11.6 | 11.7 | 11.2 | 13.9 | 1.49 µM | 2.72 | 2.04 µM | 2.25 µM | 2.05 µM | 3.6 µM | 2.5 | 1.78 | 2.79
CC(=O)NC1(C(=O)N[C@@H](Cc2ccccc2)C(=O)NC2CCCCC2)Cc2ccc3ccccc3c2-c2c(ccc3ccccc23)C1 | > 100 | > 100 | > 100 | > 100 | > 100 | > 100 | > 100 | – | > 100 | – | 4.45 µM and 18.4 µM | – | 2.91 µM and 7.77 µM | 1.17 µM and 6.26 µM | 2.87 µM and 6.4 µM | 9.72 µM and 23.1 µM | – | – | –
COc1cc(CCN(C)C)cc(OC)c1OC | – | > 100 | > 100 | > 100 | – | > 100 | > 100 | > 100 | > 100 | > 100 | – | – | – | – | – | – | – | – | –
COP(=O)(O)C(N)Cc1c[nH]c2ccccc12 (configuration not stated) | – | – | > 100 | > 100 | > 100 | > 100 | > 100 | > 100 | > 100 | > 100 | – | – | – | – | – | – | – | – | –
Clc1ccc(C2CC(c3cccc(Nc4ccncc4)c3)=NN2c2cc(Cl)cc(Cl)c2)cc1 (configuration not stated) | – | 3.12 | 3.41 | 3.29 | 3.39 | 4.65 | – | 3.7 | 3.39 | – | 1.6 µM | – | 1.84 µM | 1.8 µM | 1.69 µM | 1.76 µM | 1.86 | – | 1.93
C[n+]1c2ccccc2c(/C=N\NS(=O)(=O)c2ccc(Cl)cc2)c2ccccc21 | > 100 | > 100 | > 100 | – | > 100 | – | – | > 100 | > 100 | – | – | – | – | – | – | – | – | – | –
COc1cc(OC2OC(COC(=O)c3cc(O)c(O)c(O)c3)C(O)C(O)C2O)ccc1O (configuration not stated) | > 100 | > 100 | > 100 | 81.9 | > 100 | > 100 | – | > 100 | > 100 | > 100 | – | – | – | – | – | – | – | – | –
CCOC(=O)C(=O)CC(=O)C1=C(c2ccccc2OC)CC(c2cccs2)=CC1=O | > 100 | > 100 | > 100 | > 100 | > 100 | – | > 100 | > 100 | – | > 100 | – | – | – | – | – | – | – | – | –
CC(C)(C)OC(=O)N1[C@@H]2Cc3ccc(N)cc3[C@@]1(C)c1ccccc12 | 36.2 | > 100 | 68 | > 100 | – | – | 70.7 | > 100 | > 100 | 75.3 | – | – | – | – | – | – | – | – | –
COc1cccc(-c2nccc3c(OCc4ccccc4)c(OC)c(OC)cc23)c1 | – | > 100 | > 100 | – | – | > 100 | – | > 100 | – | – | – | – | – | – | – | – | – | – | –
NC(=Nc1ccccc1)c1ccccc1N | > 100 | > 100 | > 100 | > 100 | 64.4 | > 100 | – | > 100 | > 100 | > 100 | – | – | – | – | – | – | – | – | –
O=C(c1ccc(O)c([N+](=O)[O-])c1)c1ccc(O)c([N+](=O)[O-])c1 | > 100 | > 100 | > 100 | > 100 | > 100 | – | > 100 | > 100 | > 100 | > 100 | – | – | – | – | – | – | – | – | –
COc1ccc(CNc2nc3cc(C(F)(F)F)ccc3nc2-c2ccccc2)cc1OC | > 100 | > 100 | > 100 | > 100 | – | > 100 | > 100 | > 100 | > 100 | > 100 | – | – | – | – | – | – | – | – | –
O=C1CS[C@@](CC(c2ccc(Cl)cc2)c2ccc(Cl)cc2)(c2ccc(Cl)cc2)N1 | 71.2 | > 100 | 38 | 65.5 | > 100 | 26.3 | > 100 | > 100 | > 100 | – | – | – | – | – | – | – | – | – | –
O=C1C2=C(SCCS2)C(=O)c2c(Sc3ccc(Cl)cc3)c(Sc3ccc(Cl)cc3)c(Sc3ccc(Cl)cc3)c(Sc3ccc(Cl)cc3)c21 | > 100 | > 100 | > 100 | > 100 | – | 36.2 | > 100 | – | > 100 | 85.3 | – | – | – | – | – | – | – | – | –
CCOC(=O)c1[nH]c2cccc3c2c1CC[C@H](NC(=O)C(F)(F)F)C3=O | > 100 | 0.0531 | > 100 | > 100 | 0.0458 | > 100 | – | > 100 | 80.5 | > 100 | – | – | – | – | – | – | – | – | –
O=[N+]([O-])c1ccc([N+]2=NC(c3ccccc3)=NN(c3ccccc3)C2)cc1 | > 100 | – | > 100 | – | > 100 | > 100 | – | > 100 | > 100 | – | – | – | – | – | – | – | – | – | –
O=C(CSc1nnc(-c2ccc(N=Cc3ccc(Cl)cc3)cc2)o1)Nc1ccc([N+](=O)[O-])cc1 | 36.1 | > 100 | – | – | 33.7 | 48.7 | – | > 100 | 84.9 | – | – | – | – | – | – | – | – | – | –
CCOc1ccc(/C=C2\NC(=S)N(/C=C3\C(=O)Oc4ccccc4C3=O)C2=O)cc1 | 39.5 | 70 | 44.6 | 42.3 | 83.9 | – | – | 49.6 | 66.5 | 50.7 | – | – | – | – | – | – | – | – | –
Nc1nc(=O)n(C2OC(CO)C(O)C2O)c2ncc(-c3ccc(-c4ccccc4)cc3)nc12 (configuration not stated) | > 100 | > 100 | – | > 100 | – | > 100 | > 100 | > 100 | > 100 | 57.7 | – | – | – | – | – | – | – | – | –
